Assay results as given in patent publication US12642274B2, “Insect neuropeptides 8” (Solasta Bio Limited, priority 2023, dated 2026).
Square brackets hold non-standard residues; d marks the D form. pGlu = O=C1CC[C@@H](C(=O)O)N1

Assays:
Plutella xylostella = test: Leaf dip assay (IRAC method 018, Chinese cabbage); assay type: in vivo; settings: unformulated peptide 2×10^−4 M in 0.5% DMSO, 8% ACN, 0.1% Tween-80 in water, 120 hours; Acetamiprid 0.005% as comparator; conducted by FERA (FIG. 5)
Method: Peptides were tested in a leaf dip bioassay using Chinese cabbage on IRAC method 018 against Plutella xylostella. Peptide concentration at 2×10^−4 M in a solution of 0.5% DMSO, 8% ACN, 0.1% Tween-80 in water. Acetamiprid (pesticide) was tested at 0.005%. Vehicle control comprised 0.5% DMSO, 8% ACN, 0.1% Tween-80 in water. Peptide SB-P-86 was tested by a Contract Research Organisation, FERA Science Ltd. The activity of SB-P-86 is shown in FIG. 5; SB-P-86 has good activity whilst being eco-friendly and targeted to specific pests unlike broad spectrum chemical insecticides such as Acetamiprid.

Spodoptera frugiperda = test: Lepidoptera artificial diet assay; assay type: in vivo; settings: unformulated peptide 1×10^−4M in artificial diet, L1 larvae, one larva per cell, n=10, 168 hrs; compared to negative control vehicle and DDT (FIG. 4)
Description: Frontier Lepidoptera Artificial diet was made up by preparing agar at 1% and then mixing it with artificial diet powder. Peptide solution was aliquoted in 10 cells and diet poured straight onto it. The final concentration of the peptide was 1×10^−4M, and each peptide was aliquoted in 10 cells. Once the dict solidified and cooled down, one L1 Spodoptera frugiperda larvae was infested in each cell. The trays were sealed with heat and let larva were allowed to develop for 168 hrs. Finally, pupation and mortality were scored for. Lepidoptera artificial diet assays were performed with SB-P-86, and compared to a negative control vehicle and the insecticide dichlorodiphenyltrichloroethane (DDT).

[Pyr]-LTFTSSWGG-[NH2] ([pGlu]LTFTSSWGG-NH2; SMILES CC(C)C[C@H](NC(=O)[C@@H]1CCC(=O)N1)C(=O)N[C@H](C(=O)N[C@@H](Cc1ccccc1)C(=O)N[C@H](C(=O)N[C@@H](CO)C(=O)N[C@@H](CO)C(=O)N[C@@H](Cc1c[nH]c2ccccc12)C(=O)NCC(=O)NCC(N)=O)[C@@H](C)O)[C@@H](C)O) [SB-P-86, AKH peptide according to the invention]
activity (leaf dip bioassay) (Plutella xylostella): good activity
activity (pupation and mortality scored) (Spodoptera frugiperda): much higher activity
